Results: patent US8895753B2, “S1P receptor modulating agent” (Meiji Seika Pharma Co., Ltd., priority 2011, dated 2014)

Legend:
electrocardiogram = experiment: Evaluation of electrocardiogram in a rat (under anesthesia); type: in vivo
Method: Under anesthesia, femoral artery was cannulated in a 7-11-week-old male SD rat (Charles River Laboratories Japan Inc.) that had been reared for more than one week, connected to a polygraph (NIHON KODEN) via a pressure transducer. Without consciousness, a vehicle (dimethylsulfoxide) or a test compound was intravenously administered. After the administration, blood pressure, the heart rate, and electrocardiogram were monitored for about 10 minutes.

enterobacterium = experiment: Stability against enterobacterium (feces / cecum homogenates); type: in vitro ADME; conditions: cynomolgus monkey feces and rat cecum homogenates, 3 and 30 μM, 37° C., 24 hours; all conditions
Method: A culture medium was added to fresh feces of a cynomolgus monkey and rat cecum to prepare homogenates. To a homogenate was added the compound of the Example 2, or 1-{4-[5-(4-isopropoxyphenyl)-1,2,4-oxadiazol-3-yl]benzyl}azetidine-3-carboxylic acid (the compound of the Example 29 of Non-Patent Document 5) adjusted at a concentration of 3 and 30 μM, and the mixture was anaerobically cultured at 37° C. for 24 hours. After the cultivation, the concentration of the residual compound in the culture medium was measured on LC-MS.

blood lymphocytic cells = experiment: Suppressive effect on circulating lymphocytic cells in a rat; type: in vivo; conditions: 6 hours after administration
Method: Under anesthesia, a femoral artery was cannulated in a 7-11-week old male SD rat (Charles River Laboratories Japan Inc.) that had been reared for more than one week. A vehicle (in case of intravascular administration, 10% PEG300-0.01 M KOH saline was used, and in case of oral administration, 0.5% hydroxymethyl cellulose solution was used) or a test compound was administered intravascularly or by gavage administration. Right before the administration or 2, 4, 6 hours after the administration, the number of blood lymphocytic cells was counted by using an automated hematology analyzer XT-1800i or XT-2000i (Sysmex). The count of lymphocytic cells right before the administration was regarded as 100%, and the dose of the test compound that reduced blood lymphocytic cells by 50% of vehicle-treated group at the point of 6 hours after the administration was calculated as ED50 (mg/kg body weight).

[1] = tested on: electrocardiogram / monophasic action potential (MAP); experiment: Evaluation of cardiovascular system in a guinea pig; type: in vivo; conditions: anesthetized guinea pig, 0.1 mg/kg body weight, infusion
Text: Under anesthesia with 0.5 to 1% of halothane, to a male Hartley guinea-pig (Japan SLC, Inc.) that had been reared for more than one week, a catheter for administration of a drug solution was placed into the left jugular vein, a monophasic action potential (MAP) measurement/pacing catheter was placed into the endothelial lining of the right ventricle, a catheter for measuring blood pressure was placed into the left carotid artery, and the measurement of body surface electrocardiogram (lead II) was conducted. The drug solution was infused for 10 minutes and the measurement was carried out over 60 minutes. Also, 5, 10, 15, 20, 30, 45 and 60 minutes after the administration of the drug solution, pacing was performed (200, 240, 300 bpm), and monophasic action potential (MAP) was measured.

heart rate = experiment: Evaluation of the heart rate in a rat (under consciousness); type: in vivo; conditions: vascular administration
Method: Under anesthesia, femoral artery was cannulated in a 7-11-week old male SD rat (Charles River Laboratories Japan Inc.) that had been reared for more than one week. Arterial cannula was connected to a pressure transducer, and under consciousness changes in the heart rate were monitored with a polygraph (Nihon Kohden) up to 4 hours after the vascular administration of the vehicle (10% PEG300-0.01M KOH saline) or the test compounds. The dose that lowered the heart rate by 20% was computed as TD20 (mg/kg body weight).

[2] = anesthetized rat, intravenous 0.1 mg/kg body weight

With `CC(C)Oc1ccc(-c2nc(-c3ccc(CN4CC(C(=O)O)C4)cc3)no2)cc1` [1-{4-[5-(4-isopropoxyphenyl)-1,2,4-oxadiazol-3-yl]benzyl}azetidine-3-carboxylic acid] the “cardiac arrest (cases)” value (electrocardiogram; [2]) was 1 out of 3, the “duration of continuous cardiac arrhythmia (AV block)” value (electrocardiogram; [2]) was 170 s and the “residual compound after anaerobic culture with homogenate” value (enterobacterium) was at most 2%.

`CCCCCCCCc1ccc(CCC(N)(CO)CO)cc1` [Fingolimod, reference compound] was tested, and the “ED50, dose reducing blood lymphocytic cells by 50%” value (blood lymphocytic cells; gavage administration) was 0.2 mg/kg body weight, the “ED50, dose reducing blood lymphocytic cells by 50%” value (blood lymphocytic cells; vascular administration) was 0.06 mg/kg body weight and the MAP90 prolongation effect [1] was “recognized”. For the same compound, the “prolonged QT” value [1] was “recognized”, the “TD20, dose that lowered the heart rate by 20%” value (heart rate; conscious rat) was 0.3 mg/kg body weight and the TD20/ED50 ratio (heart rate; rat) was 5.

`CCCCCCCCc1ccc(CCC(N)(CO)COP(=O)(O)O)cc1` (stereo not shown) [phosphorylated form of Fingolimod] was tested, and the “duration of continuous cardiac arrhythmia (AV block)” value (electrocardiogram; rat, in vivo, iv, 0.1 mg/kg) was 120 s.
